The target in data set [1] is T1, α4β1 integrin (Jurkat cell adhesion to immobilized CS-1 derived peptide CLHPGEILDVPST) (Homo sapiens, UniProt P05556+P13612).
T1 construct: 100 μl of Jurkat cells (2.5×10^6 cells/ml) in DMEM plus BSA; endogenous in cells; host or cells: Jurkat T-cell line
Nature of the data set: Jurkat-CS-1 Assay. It is filed as cell-based. To be noted: Jurkat cells on CS-1 peptide coated plates. As for the experimental part:
The CS-1 derived peptide, CLHPGEILDVPST, and the scrambled control peptide, CLHGPIELVSDPT, were synthesized on a Beckman 990 synthesizer using t-Boc methodology. The peptides were immobilized onto microtiter plates using the heterobifunctional crosslinker 3-(2-pyridyldithio)propionic acid N-hydroxysuccinimide ester (SPDP) as reported by Pierschbacher et al., Proc. Natl. Acad. USA, 80:1224-1227 (1983). Microtiter plates were coated with 20 μg/ml HSA for 2 hr. at room temperature, washed once with PBS and derivatized with 10 μg/ml SPDP for 1 hr. After washing, 100 μl of a 100 μg/ml cysteine containing peptide solution which had been recently dissolved was added to the wells and allowed to crosslink to the plates overnight at 4° C. Unbound peptide was removed from plates by washing with PBS. To block non-reacted sites, the plates are coated with 100 μl of a 2.5 mg/ml BSA solution in PBS for 1 hr. at 37° C. 100 μl of Jurkat cells (2.5×10^6 cells/ml) in DMEM plus BSA (2.5 mg/ml) was mixed with an appropriate concentration of the compound to be tested and the mixture was added to peptide coated dishes and incubated for 1 hr. at 37° C. Generally 100, 20, 5 and 1.25 μM concentrations of the compound were tested.
Following this incubation the plates were washed once with PBS and the attached cells were fixed with 3% paraformaldehyde in PBS and stained with 0.5% toluidine blue in 3.7% formaldehyde. The cells were stained overnight at room temperature and the optical density at 590 nm of toluidine blue stained cells was determined using a vertical pathway spectrophotometer to quantitate attachment (VMAX Kinetic Microplate Reader, Molecular Devices, Menlo Park, Calif.). This procedure is a modification of a previously published method (Cardarelli et al, J. Biol. Chem., 269:18668-18673 (1994) and Cardarelli et al, Proc. Natl. Acad. Sci. USA, 83:2647-2651 (1986)).

Data set [2] concerns the target T2, α4β1 integrin (Jurkat T-cell adhesion to IL-1 stimulated endothelial cell monolayers) (Homo sapiens, UniProt P05556+P13612).
T2 construct: a T-cell line, Jurkat, known to express the α4β1 integrin; host or cells: Jurkat T-cell line
In words: Jurkat-Endothelial Cell Adhesion Assay (Jurkat EC). It is filed as cell-based. The conditions noted are these: Jurkat cells on IL-1 stimulated HUVEC monolayers. As to the method: The following assay established the activity of the present compounds in inhibiting β1-mediated cell adhesion in a representative in vitro system. This assay measures the adhesive interactions of a T-cell line, Jurkat, known to express the α4β1 integrin, to endothelial monolayers in the presence of test compounds. The test compounds were added in increasing concentrations to T-cells and then the T-cell compound mixture was added to IL-1 stimulated endothelial cell monolayers. The plates were incubated, washed and the percentage of attached cells was quantitated. […] Human umbilical vein endothelial cells were purchased from Clonetics (San Diego, Calif.) at passage number 2. The cells were grown on 0.5% porcine skin gelatin pre-coated flasks (Sigma, St. Louis Mo.) in EGM-UV media (Clonetics, San Diego, Calif.) supplemented with 10% fetal bovine serum. Cells are refed every 2-3 days reaching confluence by day 4 to 6. […] The endothelial cells are not used following passage 6. Am The T-cell line Jurkat was obtained from American Type Tissue Culture Collection (Rockville, Md.) and the cells were cultured in RPMI containing 10% fetal calf serum. The cells were washed twice in Hank's Balanced Salt Solution (HBSS) and resuspended in Dulbecco's […] Eagle's Media (DMEM) containing 2.5 mg/ml Human Serum Albumin (HSA). Jurkat cells (1×10^6 cells/ml) were stained with 10 ng/ml BCECF-AM z z (Molecular Probes, Eugene, Ore.)) in HBSS without phenol red. The cells were loaded with BCECF for 60 minutes in the dark at 37° C., washed 2 times, and resusupended in DMEM-HSA solution.
Confluent endothelial monolayers, grown in 96-well tissue culture plates, were stimulated for 4 hr. at 37° C. with 0.1 ng/ml (˜50 U/ml) recombinant IL-1 (Amgen, Thousand Oaks, Calif.). Following this incubation, the monolayers were washed twice with HBSS and 0.1 ml of DMEM-HSA solution was added. Jurkat cells (5×10^5 cells) were combined with the appropriate concentration of the test compound and 0.1 ml of the Jurkat cell-compound mixture was added to the endothelial cell monolayers. Generally, 100, 20, 5 and 1.25 μM compound concentrations were tested. […] The plates were placed on ice for 5 minutes to allow for Jurkat cell settling and the plates were incubated at 37° C. for 20 minutes. Following this incubation, the monolayers were washed twice with PBS containing 1 mM calcium chloride and 1 mM magnesium chloride and the plates were read using a Millipore Cytofluor 2300 (Marlboro, Mass.). Fluorescence in each well was measured as Arbitrary Fluorescence Units and percent adhesion in the absence of compound was adjusted to 100% and the % adhesion in the presence of compound was calculated. Monolayers were also fixed in 3% paraformaldehyde and evaluated microscopically to verify the adhesion. This procedure is a modification of a previously published method (Cardarelli et al., J. Biol. Chem. 269:18668-18673 (1994)).

For 18 molecules, melting point and IC50 results are on record in patent US6482849B1, “Inhibitors of α4β1 mediated cell adhesion” (Tanabe Seiyaku Co., Ltd., priority 1997, dated 2002).

Structures can show the parent of a compound that is named as a salt.

T2 sequence (P13612 34-1032): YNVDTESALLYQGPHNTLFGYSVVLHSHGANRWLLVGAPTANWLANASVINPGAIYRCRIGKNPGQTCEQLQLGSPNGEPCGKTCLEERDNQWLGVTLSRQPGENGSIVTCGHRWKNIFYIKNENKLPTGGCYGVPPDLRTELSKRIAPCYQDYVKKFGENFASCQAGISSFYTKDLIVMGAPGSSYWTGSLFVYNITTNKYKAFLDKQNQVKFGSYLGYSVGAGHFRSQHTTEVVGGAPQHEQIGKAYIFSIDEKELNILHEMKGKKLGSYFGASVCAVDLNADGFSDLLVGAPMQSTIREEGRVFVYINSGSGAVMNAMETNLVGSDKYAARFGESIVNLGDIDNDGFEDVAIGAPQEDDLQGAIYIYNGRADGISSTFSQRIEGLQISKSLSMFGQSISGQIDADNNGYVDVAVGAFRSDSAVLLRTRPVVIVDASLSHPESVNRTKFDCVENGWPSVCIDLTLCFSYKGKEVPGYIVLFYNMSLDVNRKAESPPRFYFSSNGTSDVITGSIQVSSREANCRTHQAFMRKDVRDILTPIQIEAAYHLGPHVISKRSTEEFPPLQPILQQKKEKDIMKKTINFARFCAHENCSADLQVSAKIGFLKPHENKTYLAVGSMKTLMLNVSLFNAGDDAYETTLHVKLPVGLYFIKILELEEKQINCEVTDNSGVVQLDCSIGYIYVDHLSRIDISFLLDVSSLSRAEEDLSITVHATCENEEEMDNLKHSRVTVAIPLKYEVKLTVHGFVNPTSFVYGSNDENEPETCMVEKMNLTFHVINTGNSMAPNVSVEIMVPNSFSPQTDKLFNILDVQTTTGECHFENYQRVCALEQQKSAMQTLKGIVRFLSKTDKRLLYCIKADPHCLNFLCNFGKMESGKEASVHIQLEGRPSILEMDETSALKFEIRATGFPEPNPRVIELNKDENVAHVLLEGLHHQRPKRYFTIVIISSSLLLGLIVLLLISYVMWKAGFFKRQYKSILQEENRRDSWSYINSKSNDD
T2 sequence (P05556 21-798): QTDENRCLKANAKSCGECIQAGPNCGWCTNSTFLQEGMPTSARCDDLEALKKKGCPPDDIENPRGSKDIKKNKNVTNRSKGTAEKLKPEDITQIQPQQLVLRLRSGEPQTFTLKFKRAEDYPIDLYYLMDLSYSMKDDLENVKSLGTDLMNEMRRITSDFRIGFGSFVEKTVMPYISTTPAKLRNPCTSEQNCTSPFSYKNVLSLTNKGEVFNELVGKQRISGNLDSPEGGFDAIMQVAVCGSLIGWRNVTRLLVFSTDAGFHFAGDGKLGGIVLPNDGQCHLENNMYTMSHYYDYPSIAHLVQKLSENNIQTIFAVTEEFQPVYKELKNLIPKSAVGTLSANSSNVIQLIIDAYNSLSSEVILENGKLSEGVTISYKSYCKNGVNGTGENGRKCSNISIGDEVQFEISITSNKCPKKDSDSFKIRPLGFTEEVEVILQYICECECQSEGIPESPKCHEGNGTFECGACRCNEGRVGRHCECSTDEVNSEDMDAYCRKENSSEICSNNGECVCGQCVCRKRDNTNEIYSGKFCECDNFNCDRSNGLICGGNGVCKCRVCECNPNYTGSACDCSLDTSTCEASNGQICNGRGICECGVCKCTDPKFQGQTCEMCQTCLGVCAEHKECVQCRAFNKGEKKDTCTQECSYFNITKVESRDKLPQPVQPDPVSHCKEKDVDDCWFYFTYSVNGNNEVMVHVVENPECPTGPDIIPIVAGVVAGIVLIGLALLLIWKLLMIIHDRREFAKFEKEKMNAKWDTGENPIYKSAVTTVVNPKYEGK
T1 sequence (P13612 34-1032): as the sequence (P13612 34-1032) above
T1 sequence (P05556 21-798): as the sequence (P05556 21-798) above

With `CC(C)(C)OC(=O)[C@]1(C)CC[C@H](C(=O)N[C@@H](Cc2cn(Cc3ccc(Cl)c(Cl)c3)cn2)C(=O)O)C1(C)C` [Example 202, (1S-cis)-1-[(3,4-Dichlorophenyl)methyl]-N-[[3-[(1,1-dimethylethoxy)carbonyl]-2,2,3-trimethylcyclopentyl]carbonyl]-L-histidine], the melting point (in general, the temperature of the solid-liquid transition) was 234 to 235 °C.
Regarding `CC1(C)[C@@H](C(=O)N[C@@H](Cc2ccc(C(=O)Nc3ccccc3C(F)(F)F)cc2)C(=O)O)CC[C@@]1(C)C(=O)O` [Example 222], the IC50 (usually the concentration needed to halve the response being measured) was 80 to 500 nM in data set [1] and at most 800 nM in data set [2].
In the case of `CC1(C)[C@@H](C(=O)N[C@@H](Cc2ccc(NC(=O)c3c(Cl)cccc3Cl)cc2)C(=O)O)CC[C@@]1(C)C(=O)NCCC#N` [Example 216, (1S-cis)-N-[[3-[[(2-Cyanoethyl)amino]carbonyl]-2,2,3-trimethylcyclopentyl]carbonyl]-4-[(2,6-dichlorobenzoyl)amino]-L-phenylalanine], the IC50 in data set [1] is at most 80 nM; in data set [2], at most 800 nM.
The matching figures for `CC1(C)[C@@H](C(=O)N[C@@H](Cc2ccc(C(=O)Nc3ccc(Cl)cc3)cc2)C(=O)O)CC[C@@]1(C)C(=O)O` [Example 221]: 500 to 1000 nM and 5000 to 10000 nM.
The matching figures for `CC1(C)[C@@H](C(=O)N[C@@H](Cc2ccc(NC(=O)c3cc(C(F)(F)F)ccc3Cl)cc2)C(=O)O)CC[C@@]1(C)C(=O)O` [Example 232, (1S-cis)-N-[(3-Carboxy-2,2,3-trimethyl-cyclopentyl)carbonyl]-4-[(2-chloro-5-trifluoromethylbenzoyl)amino]-L-phenylalanine]: at most 80 nM and at most 800 nM.
The matching figures for `COC(=O)[C@H](Cc1ccc(NC(=O)c2cc(C(F)(F)F)ccc2Cl)cc1)NC(=O)[C@H]1CC[C@@](C)(C(=O)O)C1(C)C` [Example 231, (1S-cis)-N-[(3-Carboxy-2,2,3-trimethyl-cyclopentyl)carbonyl]-4-[(2-chloro-5-trifluoromethylbenzoyl)amino]-L-phenylalanine methyl ester]: 500 to 1000 nM and at most 800 nM.
Turning to `CC1(C)[C@@H](C(=O)N[C@@H](Cc2ccc(OCc3c(Cl)cccc3Cl)c(O)c2)C(=O)O)CC[C@@]1(C)C(=O)O` [Example 65], the half-maximal inhibitory concentration (IC50) in data set [1] was 80 to 500 nM; in data set [2], at most 800 nM.
The matching figures for `CC1(C)[C@@H](C(=O)N[C@@H](Cc2cn(Cc3ccc4ccccc4c3)cn2)C(=O)O)CC[C@@]1(C)C(=O)O` [Example 38]: 80 to 500 nM and 800 to 5000 nM.
The matching figures for `CC1(C)[C@@H](C(=O)N[C@@H](Cc2ccc(NC(=O)c3c(Cl)cccc3Cl)cc2)C(=O)O)CC[C@@]1(C)C(=O)N[C@H](CCCCN)C(=O)O` (relative stereo) [Example 179]: at most 80 nM and 5000 to 10000 nM.
The matching figures for `CC1(C)[C@@H](C(=O)O)CC[C@@]1(C)NC(=O)N[C@]1(C)CC[C@H](C(=O)N[C@@H](Cc2ccc(NC(=O)c3c(Cl)cccc3Cl)cc2)C(=O)O)C1(C)C` (relative stereo) [Example 236, [1S-[1α,3α(1S*,3R*)-N-]]-N-[[3[[[(3-Carboxy-1,2,2-trimethylcyclopentyl)amino]carbonyl]-amino]-2,2,3-trimethylcyclopentyl]carbonyl]-4-[(2,6-dichlorobenzoyl)-amino]-L-phenylalanine]: 80 to 500 nM and at most 800 nM.
In the case of `CNC(=O)[C@@H]1CCCN1C(=O)[C@]1(C)CC[C@H](C(=O)N[C@@H](Cc2ccc(NC(=O)c3c(Cl)cccc3Cl)cc2)C(=O)O)C1(C)C` (relative stereo) [Example 215, [1S-[1α,3α(R*)]]-N-[3-[[2-[(Methylamino)carbonyl]-1-pyrrolidinyl]carbonyl]-2,2,3-trimethyl-cyclopentyl]carbonyl]-4-[(2,6-dichlorobenzoyl)amino]-L-phenylalanine monosodium salt], the values for the IC50 in data set [1] and in data set [2] were 80 to 500 nM and at most 800 nM, respectively.
Consider `C[C@H](NC(=O)[C@]1(C)CC[C@H](C(=O)N[C@@H](Cc2ccc(NC(=O)c3c(Cl)cccc3Cl)cc2)C(=O)O)C1(C)C)C(=O)O` (relative stereo) [Example 211, [1S-[1α,3α(S*)]]-N-[[3-[[(1-Carboxyethyl)amino]carbonyl]-2,2,3-trimethylcyclopentyl]carbonyl]-4-[(2,6-dichlorobenzoyl)amino]-L-phenylalanine], for which the half-inhibitory concentration (IC50) in data set [1] was at most 80 nM; in data set [2] it was at most 800 nM.
The matching figures for `CC1(C)[C@@H](C(=O)N[C@@H](Cc2ccc(NC(=O)c3c(Cl)cccc3Cl)cc2)C(=O)O)CC[C@@]1(C)C(=O)N1CCC[C@@H]1C(N)=O` (relative stereo) [Example 212, [1S-[1α,3α(S*)]]-N-[3-[[2-(Aminocarbonyl)-1-pyrrolidinyl]carbonyl]-2,2,3-trimethylcyclopentyl]-carbonyl]-4-[(2,6-dichlorobenzoyl)amino]-L-phenylalanine monolithium salt]: 80 to 500 nM and 5000 to 10000 nM.
The matching figures for `CC1(C)[C@@H](C(=O)N[C@H](Cc2ccc(OCc3c(Cl)cccc3Cl)cn2)C(=O)O)CC[C@@]1(C)C(=O)O` (relative stereo) [Example 254, [1S-[1α(R*),3α]]-α-[[(3-Carboxy-2,2,3-trimethylcyclopentyl)carbonyl]amino]-3-[(2,6-dichlorophenyl)methoxy]-6-pyridinepropanoic acid]: 80 to 500 nM and 800 to 5000 nM.
The matching figures for `CC1(C)[C@@H](C(=O)N[C@@H](Cc2ccc(NC(=O)c3c(Cl)cccc3Cl)cc2)C(=O)O)CC[C@@]1(C)C(=O)N1CCOCC1` [Example 225, (1S-cis)-4-[(2,6-Dichlorobenzoyl)amino]-N-[[2,2,3-trimethyl-3-[(4-morpholinyl)carbonyl]-cyclopentyl]carbonyl]-L-phenylalanine]: at most 80 nM and at most 800 nM.
With `CC1(C)[C@@H](C(=O)N[C@@H](Cc2cn(Cc3ccccc3C(F)(F)F)cn2)C(=O)O)CC[C@@]1(C)C(=O)O` [Example 36], the values for the IC50 in data set [1] and in data set [2] were 500 to 1000 nM and 5000 to 10000 nM, respectively.
The matching figures for `CC1(C)[C@@H](C(=O)N[C@@H](Cc2ccc(OCc3ccc4ccccc4c3)cc2)C(=O)O)CC[C@@]1(C)C(=O)O` [Example 10]: 80 to 500 nM and 800 to 5000 nM.
As to `CC1(C)[C@@H](C(=O)N[C@@H](Cc2cn(Cc3ccc(Cl)cc3Cl)cn2)C(=O)O)CC[C@@]1(C)C(=O)O` [Example 24], the half-inhibitory concentration (IC50) in data set [1] was 80 to 500 nM; in data set [2] it was 800 to 5000 nM.
